{"source": "paper PMC3128661", "about": "(Bioorganic & medicinal chemistry letters, 2011)", "key": {"[1]": {"test_system": "E. coli (J-53)", "conditions": "ref [4],[7]; cited from earlier work"}, "[2]": {"test_system": "Gram+ bacteria", "conditions": "ref [4],[7]; cited from earlier work"}, "[3]": {"test_system": "VRE", "experiment": "MIC determination in 96-well plates", "assay_type": "cell-based, E. faecium", "conditions": "Enterococcus, read-out: MIC VRE"}}}
{"smiles": "CCc1cc(Nc2cc(=O)n(CCCCO)c(=O)[nH]2)ccc1C", "note": "[Compound 1, HB-EMAU]", "values": [{"measurement": "activity against the Gram- bacterium E. coli", "setting": "[1]", "value": "inactive"}, {"measurement": "MIC values against various organisms", "setting": "[2]", "value": "2.5 to 5", "unit": "µg/mL"}]}
{"smiles": "CCc1cc(Nc2cc3c(ncn3CCCCN3CCOCC3)c(=O)[nH]2)ccc1C", "note": "[Compound 21b]", "values": [{"measurement": "MIC", "setting": "[3]", "value": "> 80", "unit": "µg/mL"}]}
{"smiles": "CCc1cc(Nc2nc(O)c3ncn(CCCCO)c3n2)ccc1C", "note": "[Compound 2b]", "values": [{"measurement": "MIC", "setting": "[3]", "value": "> 80", "unit": "µg/mL"}]}
{"smiles": "CCc1cc(Nc2cc3c(ncn3CCCCOC)c(=O)[nH]2)ccc1C", "note": "[Compound 19b]", "values": [{"measurement": "MIC", "setting": "[3]", "value": "> 80", "unit": "µg/mL"}]}
